Data set [1] has as its system HCT-116. In words: Antiproliferative activity against human HCT116 cells. The format is functional, cell-based.
Data set [2] addresses T1, Aurora kinase B (Homo sapiens, UniProt Q96GD4). In words: Binding affinity to Aurora B kinase catalytic domain by competitive binding assay.
The nature of data set [3]: Clearance in Sprague-Dawley rat at 1 mg/kg, iv. It counts as ADME, organism-based. Details: dose 1 mg/kg, route intravenous. The note with it: in vivo.
Data set [4] is described as follows: Half life in Sprague-Dawley rat at 1 mg/kg, iv. It counts as ADME, organism-based. Details: dose 1 mg/kg, route intravenous. The note with it: in vivo.
The target in data set [5] is T2, Aurora kinase A (Homo sapiens, UniProt O14965).
T2 sequence (O14965 whole entry): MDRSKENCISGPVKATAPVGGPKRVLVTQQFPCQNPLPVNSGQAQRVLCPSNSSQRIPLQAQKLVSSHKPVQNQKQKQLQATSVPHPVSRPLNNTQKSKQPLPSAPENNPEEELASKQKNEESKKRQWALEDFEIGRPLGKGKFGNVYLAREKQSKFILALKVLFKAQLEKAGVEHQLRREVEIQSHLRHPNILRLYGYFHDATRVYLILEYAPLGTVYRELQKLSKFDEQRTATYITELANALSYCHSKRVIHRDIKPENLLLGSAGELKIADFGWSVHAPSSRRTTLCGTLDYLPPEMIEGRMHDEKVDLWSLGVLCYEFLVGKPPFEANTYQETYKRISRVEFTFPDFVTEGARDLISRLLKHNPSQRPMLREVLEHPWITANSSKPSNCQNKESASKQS
In words: Binding affinity to Aurora A kinase catalytic domain by competitive binding assay.

In data set [6] the target is T1, Aurora kinase B. Kind of data set: Inhibition of Aurora B kinase assessed as reduction in histone H3 phosphorylation in human HCT116 cells. The format is cell-based, HCT-116.
The target of data set [7] is T3, Aurora kinase C (Homo sapiens, UniProt Q9UQB9).
T3 sequence (Q9UQB9 whole entry): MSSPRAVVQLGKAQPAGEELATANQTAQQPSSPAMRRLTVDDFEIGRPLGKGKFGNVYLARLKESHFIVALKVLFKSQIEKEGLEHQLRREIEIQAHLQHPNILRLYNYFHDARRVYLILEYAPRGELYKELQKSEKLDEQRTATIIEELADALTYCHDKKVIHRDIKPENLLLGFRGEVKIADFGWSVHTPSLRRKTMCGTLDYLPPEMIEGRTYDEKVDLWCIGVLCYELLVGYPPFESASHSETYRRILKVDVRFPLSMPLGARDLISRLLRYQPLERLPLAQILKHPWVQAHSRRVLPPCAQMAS
In words: Binding affinity to Aurora C kinase catalytic domain by competitive binding assay.

The nature of data set [8]: AUC in Sprague-Dawley rat at 1 mg/kg, iv. The format is ADME, organism-based. On the set-up: dose 1 mg/kg, route intravenous. The note with it: plasma.
Data set [9] in a line: Volume of distribution in Sprague-Dawley rat at 1 mg/kg, iv. The format is ADME, organism-based. On the set-up: dose 1 mg/kg, route intravenous. The note with it: in vivo.
Data set [10] concerns HCT-116. In words: Antitumor activity against human HCT116 cells xenografted in nude mouse assessed as tumor suppression dose administered intraperitoneally twice daily. It counts as functional, cell-based. Background: A xenograft is tissue or cells of one species grown in another, often human tumour cells in immunodeficient mice.
For data set [11], the system named is Mus musculus. Kind of data set: Toxicity in nude mouse xenografted with human HCT116 cells assessed as body weight loss at 37.5 mg/kg, ip BID for 8 days. It counts as organism-based, HCT-116. On the set-up: dose 37.5 mg/kg, route intraperitoneal. The note with it: in vivo, 192 h.
Data set [12] can be described thus: AUC in SCID mouse at 60 mg/kg, ip. It counts as ADME, organism-based. Details: dose 60 mg/kg, route intraperitoneal. The note with it: plasma.

For orientation: IC50 means the concentration that inhibits the measured activity by half. In general, Kd refers to a measure of binding affinity in units of concentration. Read a high Kd as weaker binding. The clearance is the volume of plasma or blood freed of the substance per unit of time. Read a low clearance as inefficient removal. As usually defined, the half-life is the time in which the quantity being followed falls by half. The low end stands for fast loss, the high end for slow loss. Broadly, the AUC is concentration integrated over time. Lower therefore signals low exposure. The Vd is a proportionality between amount in the body and measured concentration, not a real space. A high value points to wide distribution into tissue.

T1 sequence (Q96GD4 whole entry, the tested form may be a part): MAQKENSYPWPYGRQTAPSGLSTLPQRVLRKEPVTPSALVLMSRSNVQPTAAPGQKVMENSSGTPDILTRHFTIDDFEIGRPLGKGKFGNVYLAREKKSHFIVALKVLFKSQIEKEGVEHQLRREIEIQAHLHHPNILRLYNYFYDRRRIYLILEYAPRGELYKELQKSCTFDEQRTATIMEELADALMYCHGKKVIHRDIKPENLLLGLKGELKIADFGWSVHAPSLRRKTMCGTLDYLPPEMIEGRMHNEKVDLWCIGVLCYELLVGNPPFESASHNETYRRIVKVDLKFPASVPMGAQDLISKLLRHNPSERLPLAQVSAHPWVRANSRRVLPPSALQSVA

Turning to `Cc1cc(Nc2nc(Sc3ccc(NC(=O)C4CC4)cc3)nn3cccc23)n[nH]1`, the IC50 in data set [1] was 345 nM; in data set [6] it was 431 nM. Further, the values for the Kd in [2], in data set [5] and in [7] were 20 nM, 12 nM and 4 nM, respectively. Moreover, the clearance in data set [3] is 28.5 mL/min/kg. Moreover, in [4], the half-life is 10.8 h. In data set [8], this molecule displayed an AUC of 2.34 µM·h. The molecule further showed a Vd in data set [9] of 2.15 L/kg.

As for `Cc1cc(Nc2nc(Sc3ccc(NC(=O)CN4C[C@H](OC(C)(C)C)C[C@H]4CO)cc3)nn3cccc23)n[nH]1`, the IC50 was 8 nM in data set [1] and 15 nM in [6]. Besides, the Kd in data set [2] was determined as 8 nM; in data set [5], 9 nM; in data set [7], 2 nM. In data set [3], this molecule had a clearance of 52.2 mL/min/kg. Besides, the half-life in data set [4] was 15.4 h. The same molecule displayed an AUC in data set [8] of 0.581 µM·h. Besides, the volume of distribution (Vd) in data set [9] came out at 9.77 L/kg.

In the case of `Cc1cc(Nc2nc(Sc3ccc(NC(=O)CN4C[C@H](Oc5ccc(F)cc5)[C@@H](O)C4)cc3)nn3cccc23)n[nH]1`, the IC50 is 5 nM in [1] and 44 nM in data set [6]. Further, the Kd in data set [2] was 8 nM; in data set [5], 15 nM. For the same molecule, the clearance in [3] amounted to 25.2 mL/min/kg. For the same molecule, in data set [4], the half-life is 3.36 h. For the same molecule, the Activity result was “Dose-dependent effect” in data set [10] and more than 20% in data set [11]. Besides, the AUC in data set [8] is 1.17 µM·h; in [12], 47.5 µM·h. This molecule displayed a Vd in data set [9] of 2.93 L/kg.

With `Cc1cc(Nc2nc(Sc3ccc(NC(=O)CN4C[C@H](OC(C)(C)C)[C@@H](O)C4)cc3)nn3cccc23)n[nH]1`, the values for the IC50 in data set [1] and in data set [6] were 4 nM and 16 nM, respectively. Also, the results for the Kd in data set [2] and in data set [5] were 5 nM and 12 nM, respectively. For the same molecule, the clearance in data set [3] worked out at 45 mL/min/kg. In data set [4], this molecule showed a half-life of 11.2 h. This molecule also yielded an AUC in data set [8] of 0.644 µM·h. The same molecule returned a Vd in data set [9] of 18.3 L/kg.

Take `Cc1cc(Nc2nc(Sc3ccc(NC(=O)C4CC4)cc3)nn3cc(NC(=O)CN4CCOCC4)cc23)n[nH]1`: the IC50 in data set [1] turned out to be 160 nM; in data set [6], 420 nM. Further, the Kd is 9 nM in [2], 7 nM in [5] and 3 nM in [7].

`Cc1cc(Nc2nc(Sc3ccc(NC(=O)C4CC4)cc3)nn3cc(NC(=O)CN4CCC[C@@H]4CO)cc23)n[nH]1`: the IC50 is 536 nM in data set [1] and 6300 nM in data set [6]. In addition, the equilibrium dissociation constant (Kd) in data set [2] was 16 nM; in [5], 10 nM; in [7], 80 nM.

Consider `Cc1cc(Nc2nc(Sc3ccc(NC(=O)C4CC4)cc3)nn3cc(NC(=O)N4CCN(C)CC4)cc23)n[nH]1`, for which the IC50 in data set [1] is 75 nM; in data set [6], 190 nM. In addition, the Kd in data set [2] turned out to be 4 nM; in [5], 7 nM; in data set [7] it was 5 nM. Also, the clearance in data set [3] was determined as 53.3 mL/min/kg. The half-life in [4] is 8.66 h. Moreover, the AUC in [8] was 0.757 µM·h. Moreover, in data set [9], the Vd turned out to be 5.86 L/kg.

`Cc1cc(Nc2nc(Sc3ccc(NC(=O)C4CC4)cc3)nn3cc(NC(=O)CN4CCCC4)cc23)n[nH]1`: the IC50 in data set [1] amounted to 536 nM; in [6], 828 nM. Also, the Kd was 49 nM in data set [2], 23 nM in data set [5] and 13 nM in data set [7].

In the case of `Cc1cc(Nc2nc(Sc3ccc(NC(=O)CNC4CCCC4)cc3)nn3cccc23)n[nH]1`, the figures for the IC50 in [1] and in data set [6] were 365 nM and 655 nM, respectively. Besides, the dissociation constant (Kd) in data set [2] was 42 nM; in [5], 143 nM; in data set [7], 14 nM.

These data come from ChEMBL document CHEMBL1821662 (Bioorg Med Chem Lett, 2011).
